Experimental data from the NIST ThermoML archive (doi:10.1016/j.jct.2011.08.019).
Where “and” joins values, the source holds several entries; their conditions need not be identical. Equal values may be shown once.

Experiment: molar heat capacity at constant pressure
Conditions: 101.33 kPa, Liquid, Small sample (50 mg) DSC

CCn1cc[n+](C)c1.O=S(=O)([N-]S(=O)(=O)C(F)(F)F)C(F)(F)F
Conditions | molar heat capacity at constant pressure
343.15 K | 531 J/K/mol and 533.4 J/K/mol and 533.7 J/K/mol
348.15 K | 531.8 J/K/mol and 534.1 J/K/mol and 534.9 J/K/mol
353.15 K | 533 J/K/mol and 536.1 J/K/mol
358.15 K | 537.3 J/K/mol and 537.7 J/K/mol and 534.9 J/K/mol
363.15 K | 536.1 J/K/mol and 538.4 J/K/mol and 539.2 J/K/mol
368.15 K | 537.7 J/K/mol and 539.6 J/K/mol and 540.4 J/K/mol
373.15 K | 538.8 J/K/mol and 541.6 J/K/mol and 542.4 J/K/mol
378.15 K | 540.8 J/K/mol and 542.7 J/K/mol and 543.5 J/K/mol
383.15 K | 541.6 J/K/mol and 543.9 J/K/mol
388.15 K | 542.7 J/K/mol and 545.1 J/K/mol and 545.5 J/K/mol
393.15 K | 544.7 J/K/mol and 546.7 J/K/mol
398.15 K | 545.5 J/K/mol and 547.4 J/K/mol and 548.2 J/K/mol
403.15 K | 547.4 J/K/mol and 549.4 J/K/mol
408.15 K | 548.6 J/K/mol and 550.2 J/K/mol and 549.8 J/K/mol
413.15 K | 549.4 J/K/mol and 552.1 J/K/mol and 550.2 J/K/mol
418.15 K | 550.6 J/K/mol and 552.5 J/K/mol and 551.7 J/K/mol
423.15 K | 551.4 J/K/mol and 552.9 J/K/mol and 552.5 J/K/mol
428.15 K | 552.1 J/K/mol and 553.7 J/K/mol and 552.9 J/K/mol
433.15 K | 552.5 J/K/mol and 554.9 J/K/mol and 555.3 J/K/mol
438.15 K | 554.1 J/K/mol and 556.1 J/K/mol and 555.7 J/K/mol
443.15 K | 554.9 J/K/mol and 556.4 J/K/mol and 556.1 J/K/mol
448.15 K | 555.7 J/K/mol and 557.2 J/K/mol
453.15 K | 556.4 J/K/mol and 558.4 J/K/mol and 556.8 J/K/mol
458.15 K | 557.6 J/K/mol and 558.4 J/K/mol and 558 J/K/mol
463.15 K | 557.6 J/K/mol and 558.8 J/K/mol

CCCCCCCCCCCCCC[P+](CCCCCC)(CCCCCC)CCCCCC.O=S(=O)([N-]S(=O)(=O)C(F)(F)F)C(F)(F)F
Conditions | molar heat capacity at constant pressure
328.15 K | 1373.7 J/K/mol and 1363 J/K/mol and 1359.9 J/K/mol
333.15 K | 1370.6 J/K/mol [middle of 4 runs]
338.15 K | 1375.2 J/K/mol [middle of 4 runs]
343.15 K | 1381.3 J/K/mol [middle of 4 runs]
348.15 K | 1390.5 J/K/mol [middle of 4 runs]
353.15 K | 1400.4 J/K/mol [middle of 4 runs]
358.15 K | 1410.4 J/K/mol and 1399.7 J/K/mol and 1395.1 J/K/mol
363.15 K | 1419.5 J/K/mol [middle of 4 runs]
368.15 K | 1428.7 J/K/mol and 1420.3 J/K/mol and 1426.4 J/K/mol
373.15 K | 1439.4 J/K/mol [middle of 4 runs]
378.15 K | 1445.5 J/K/mol [middle of 4 runs]
383.15 K | 1454.7 J/K/mol [middle of 4 runs]
388.15 K | 1462.3 J/K/mol [middle of 4 runs]
393.15 K | 1470 J/K/mol [middle of 4 runs]
398.15 K | 1479.9 J/K/mol [middle of 4 runs]
403.15 K | 1487.5 J/K/mol and 1478.4 J/K/mol and 1469.2 J/K/mol
408.15 K | 1494.4 J/K/mol [middle of 4 runs]
413.15 K | 1501.3 J/K/mol [middle of 4 runs]
418.15 K | 1508.9 J/K/mol [middle of 4 runs]
423.15 K | 1516.6 J/K/mol [middle of 4 runs]
428.15 K | 1521.9 J/K/mol [middle of 4 runs]
433.15 K | 1533.4 J/K/mol and 1519.6 J/K/mol and 1509.7 J/K/mol
438.15 K | 1541 J/K/mol [middle of 4 runs]
443.15 K | 1544.8 J/K/mol [middle of 4 runs]
448.15 K | 1548.6 J/K/mol [middle of 4 runs]
453.15 K | 1557.8 J/K/mol [middle of 4 runs]
458.15 K | 1561.6 J/K/mol [middle of 4 runs]
463.15 K | 1567.7 J/K/mol [middle of 4 runs]

CCCCCCCCCCCCCC[P+](CCCCCC)(CCCCCC)CCCCCC.N#C[N-]C#N [tetradecyl(trihexyl)phosphonium dicyanamide]
Conditions | molar heat capacity at constant pressure
313.15 K | 1060.2 J/K/mol and 1065.1 J/K/mol and 1061.3 J/K/mol
318.15 K | 1065.7 J/K/mol and 1070.6 J/K/mol and 1067.3 J/K/mol
323.15 K | 1075.6 J/K/mol and 1080 J/K/mol and 1076.1 J/K/mol
328.15 K | 1089.3 J/K/mol and 1086 J/K/mol and 1084.4 J/K/mol
333.15 K | 1094.3 J/K/mol and 1099.2 J/K/mol and 1095.4 J/K/mol
338.15 K | 1105.3 J/K/mol and 1109.1 J/K/mol and 1106.9 J/K/mol
343.15 K | 1114.6 J/K/mol and 1119.6 J/K/mol and 1116.8 J/K/mol
348.15 K | 1124.5 J/K/mol and 1129.5 J/K/mol and 1127.3 J/K/mol
353.15 K | 1135 J/K/mol and 1140.5 J/K/mol and 1137.2 J/K/mol
358.15 K | 1145.4 J/K/mol and 1150.4 J/K/mol and 1147.6 J/K/mol
363.15 K | 1155.3 J/K/mol and 1160.3 J/K/mol
368.15 K | 1164.1 J/K/mol and 1169.1 J/K/mol and 1165.2 J/K/mol
373.15 K | 1172.9 J/K/mol and 1177.9 J/K/mol and 1173.5 J/K/mol
378.15 K | 1180.6 J/K/mol and 1186.1 J/K/mol and 1190.5 J/K/mol
383.15 K | 1188.9 J/K/mol and 1194.4 J/K/mol and 1194.9 J/K/mol
388.15 K | 1197.7 J/K/mol and 1203.2 J/K/mol and 1204.8 J/K/mol
393.15 K | 1205.9 J/K/mol and 1212 J/K/mol and 1214.2 J/K/mol
398.15 K | 1213.6 J/K/mol and 1219.7 J/K/mol and 1220.2 J/K/mol
403.15 K | 1221.3 J/K/mol and 1226.8 J/K/mol and 1227.9 J/K/mol
408.15 K | 1227.4 J/K/mol and 1233.4 J/K/mol and 1234 J/K/mol
413.15 K | 1234.5 J/K/mol and 1241.1 J/K/mol and 1244.4 J/K/mol

CCCC[P+](C)(CCCC)CCCC.COS(=O)(=O)[O-] [tributylmethylphosphonium methyl sulfate]
Conditions | molar heat capacity at constant pressure
343.15 K | 668.1 J/K/mol and 660.8 J/K/mol
348.15 K | 672 J/K/mol and 665.4 J/K/mol
353.15 K | 676.3 J/K/mol and 669.7 J/K/mol
358.15 K | 681.2 J/K/mol and 674.3 J/K/mol
363.15 K | 685.8 J/K/mol and 678.9 J/K/mol
368.15 K | 690.4 J/K/mol and 683.8 J/K/mol
373.15 K | 695.3 J/K/mol and 687.4 J/K/mol
378.15 K | 698.3 J/K/mol and 692.4 J/K/mol
383.15 K | 703.2 J/K/mol and 697.3 J/K/mol
388.15 K | 707.2 J/K/mol and 702.2 J/K/mol
393.15 K | 711.1 J/K/mol and 705.5 J/K/mol
398.15 K | 714.4 J/K/mol and 711.1 J/K/mol
403.15 K | 715 J/K/mol and 715.4 J/K/mol
408.15 K | 720 J/K/mol and 718.6 J/K/mol
413.15 K | 726.2 J/K/mol and 721.3 J/K/mol
418.15 K | 729.2 J/K/mol and 723.9 J/K/mol
423.15 K | 733.1 J/K/mol and 728.8 J/K/mol
428.15 K | 736.4 J/K/mol and 732.4 J/K/mol
433.15 K | 738.4 J/K/mol and 737.4 J/K/mol
438.15 K | 743.3 J/K/mol and 741.6 J/K/mol
443.15 K | 745.9 J/K/mol and 744.6 J/K/mol
448.15 K | 748.9 J/K/mol and 747.6 J/K/mol
453.15 K | 751.8 J/K/mol and 750.8 J/K/mol
458.15 K | 754.4 J/K/mol and 754.1 J/K/mol
463.15 K | 757.4 J/K/mol and 756.1 J/K/mol

CCCCCCCCCCCCCC[P+](CCCCCC)(CCCCCC)CCCCCC.[Cl-] [trihexyl(tetradecyl)phosphonium chloride]
Conditions | molar heat capacity at constant pressure
338.15 K | 835 J/K/mol and 833.5 J/K/mol and 834 J/K/mol
343.15 K | 838.7 J/K/mol and 837.1 J/K/mol and 837.6 J/K/mol
348.15 K | 842.8 J/K/mol [middle of 4 runs]
353.15 K | 850.6 J/K/mol and 848.5 J/K/mol and 849.1 J/K/mol
358.15 K | 857.9 J/K/mol and 855.3 J/K/mol and 854.8 J/K/mol
363.15 K | 863.6 J/K/mol and 861.5 J/K/mol and 860.5 J/K/mol
368.15 K | 870.9 J/K/mol and 868.3 J/K/mol and 867.8 J/K/mol
373.15 K | 876.6 J/K/mol and 874.5 J/K/mol and 874 J/K/mol
378.15 K | 881.8 J/K/mol [middle of 4 runs]
383.15 K | 889.6 J/K/mol and 886.5 J/K/mol and 888 J/K/mol
388.15 K | 893.7 J/K/mol [middle of 4 runs]
393.15 K | 901 J/K/mol and 899.4 J/K/mol and 898.4 J/K/mol
398.15 K | 905.2 J/K/mol [middle of 4 runs]
403.15 K | 910.3 J/K/mol [middle of 4 runs]
408.15 K | 917.6 J/K/mol and 915 J/K/mol and 916.1 J/K/mol
413.15 K | 922.8 J/K/mol [middle of 4 runs]
418.15 K | 928 J/K/mol [middle of 4 runs]
423.15 K | 933.2 J/K/mol and 931.1 J/K/mol and 932.7 J/K/mol
428.15 K | 937.9 J/K/mol [middle of 4 runs]
433.15 K | 944.1 J/K/mol [middle of 4 runs]
438.15 K | 948.8 J/K/mol [middle of 4 runs]
443.15 K | 952.4 J/K/mol and 953.4 J/K/mol and 951.4 J/K/mol
448.15 K | 957.1 J/K/mol [middle of 4 runs]
453.15 K | 961.2 J/K/mol [middle of 4 runs]
458.15 K | 965.4 J/K/mol [middle of 4 runs]
463.15 K | 968 J/K/mol [middle of 4 runs]

CCCCCCCCCCCCCC[P+](CCCCCC)(CCCCCC)CCCCCC.FC(F)(F)C(F)(F)[P-](F)(F)(F)(C(F)(F)C(F)(F)F)C(F)(F)C(F)(F)F
Conditions | molar heat capacity at constant pressure
338.15 K | 1543.8 J/K/mol [middle of 4 runs]
343.15 K | 1547.5 J/K/mol [middle of 4 runs]
348.15 K | 1556.8 J/K/mol [middle of 4 runs]
353.15 K | 1566.1 J/K/mol and 1563.3 J/K/mol
358.15 K | 1577.2 J/K/mol and 1574.4 J/K/mol
363.15 K | 1587.4 J/K/mol and 1583.7 J/K/mol and 1585.6 J/K/mol
368.15 K | 1596.7 J/K/mol [middle of 4 runs]
373.15 K | 1604.1 J/K/mol [middle of 4 runs]
378.15 K | 1615.3 J/K/mol [middle of 4 runs]
383.15 K | 1626.4 J/K/mol [middle of 4 runs]
388.15 K | 1634.8 J/K/mol
393.15 K | 1645 J/K/mol [middle of 4 runs]
398.15 K | 1652.4 J/K/mol [middle of 4 runs]
403.15 K | 1661.7 J/K/mol [middle of 4 runs]
408.15 K | 1668.2 J/K/mol and 1669.2 J/K/mol
413.15 K | 1678.4 J/K/mol and 1677.5 J/K/mol
418.15 K | 1688.7 J/K/mol and 1685.9 J/K/mol and 1687.7 J/K/mol
423.15 K | 1697 J/K/mol [middle of 4 runs]
428.15 K | 1700.7 J/K/mol [middle of 4 runs]
433.15 K | 1707.2 J/K/mol and 1711 J/K/mol
438.15 K | 1722.1 J/K/mol [middle of 4 runs]
443.15 K | 1727.7 J/K/mol [middle of 4 runs]
448.15 K | 1735.1 J/K/mol [middle of 4 runs]
453.15 K | 1743.5 J/K/mol [middle of 4 runs]
458.15 K | 1750 J/K/mol and 1753.7 J/K/mol and 1739.7 J/K/mol
463.15 K | 1756.5 J/K/mol [middle of 4 runs]
468.15 K | 1761.1 J/K/mol [middle of 4 runs]
473.15 K | 1763.9 J/K/mol [middle of 4 runs]
478.15 K | 1771.3 J/K/mol [middle of 4 runs]
483.15 K | 1768.5 J/K/mol and 1776 J/K/mol and 1780.6 J/K/mol
488.15 K | 1785.3 J/K/mol [middle of 4 runs]
493.15 K | 1785.3 J/K/mol [middle of 4 runs]
498.15 K | 1787.1 J/K/mol [middle of 4 runs]
503.15 K | 1798.3 J/K/mol [middle of 4 runs]
508.15 K | 1802 J/K/mol [middle of 4 runs]
513.15 K | 1809.4 J/K/mol and 1803.8 J/K/mol and 1805.7 J/K/mol
